Several values for one entry are separate records, joined by “and”; a condition that tells them apart may be missing. Equal entries are not always repeated. Structures can show the parent of a compound that is named as a salt. Where two headings read alike, the source gives them in different places.
What was measured:
[1] = system: mouse bone-marrow derived macrophages
[2] = molecular target: CSF-1R (c-fms) (Homo sapiens (Human), UniProt P07333); test: Fluorescence polarization competition immunoassay (1 nM c-fms; peptide Pi assay); assay type: biochemical; settings: read-out: 1 nM c-fms; peptide Pi assay - IC-50
Method: Fluorescence Polarization Competition Immunoassay
The kinase reaction was initiated by adding 1 μL of 10 mM ATP in assay buffer. […] Positive and negative control wells were included on each plate, where 4% DMSO in assay buffer was substituted for the compound; in addition, positive control wells received 1.2 μL of 50 mM EDTA (ethylenediaminetetraacetic acid) before the start of the reaction.
The plates were covered, incubated for 30 min at room temperature, and the fluorescence polarization was read on an Analyst plate reader (Molecular Devices). […] Reported IC50 values are the mean of three of at least three determinations.

[3] = molecular target: c-fms (Homo sapiens (Human), UniProt P07333); test: 10 nM c-fms auto-Pi assay; assay type: biochemical; settings: cell printed as 0.05@0.002–2; read-out: 10 nM c-fms auto-Pi assay - IC-50
[4] = read-out: mCSF driven proliferation BMDM (Mouse) - IC-50, BrDU incorporation, CSF-1 stimulated, 30 hrs culture
[5] = Mus musculus, BMDM, 30 h, read-out: mCSF driven proliferation BMDM (Mouse) - IC-50 (μM), BrDU incorporation, CSF-1 stimulated, 30 hrs culture

Chain of CSF-1R (c-fms) (P07333 20-972): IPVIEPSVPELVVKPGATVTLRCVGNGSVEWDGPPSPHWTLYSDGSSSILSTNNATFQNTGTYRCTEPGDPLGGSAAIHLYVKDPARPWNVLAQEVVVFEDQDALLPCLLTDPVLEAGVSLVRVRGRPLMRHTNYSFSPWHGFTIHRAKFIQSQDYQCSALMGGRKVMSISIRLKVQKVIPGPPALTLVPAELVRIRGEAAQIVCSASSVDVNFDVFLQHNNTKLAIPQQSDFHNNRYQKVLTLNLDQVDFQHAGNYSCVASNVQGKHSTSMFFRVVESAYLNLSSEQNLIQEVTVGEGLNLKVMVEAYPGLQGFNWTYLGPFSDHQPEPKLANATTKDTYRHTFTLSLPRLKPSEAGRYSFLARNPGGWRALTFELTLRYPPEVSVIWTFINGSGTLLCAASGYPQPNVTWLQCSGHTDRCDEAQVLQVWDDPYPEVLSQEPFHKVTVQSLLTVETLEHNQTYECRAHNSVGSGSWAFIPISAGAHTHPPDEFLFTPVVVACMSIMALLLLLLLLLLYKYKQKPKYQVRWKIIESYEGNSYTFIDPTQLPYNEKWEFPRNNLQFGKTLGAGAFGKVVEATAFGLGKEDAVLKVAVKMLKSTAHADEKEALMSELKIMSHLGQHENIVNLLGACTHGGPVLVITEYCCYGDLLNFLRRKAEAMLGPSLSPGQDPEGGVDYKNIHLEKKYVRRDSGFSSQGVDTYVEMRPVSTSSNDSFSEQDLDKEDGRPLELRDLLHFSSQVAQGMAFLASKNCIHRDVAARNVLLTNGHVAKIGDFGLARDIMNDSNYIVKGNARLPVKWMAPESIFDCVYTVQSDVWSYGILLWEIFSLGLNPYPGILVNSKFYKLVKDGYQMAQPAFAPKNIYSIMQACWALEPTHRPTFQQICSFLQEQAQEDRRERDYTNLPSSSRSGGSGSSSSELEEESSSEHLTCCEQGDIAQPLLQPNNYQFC
Chain of c-fms (P07333 20-972): as above

SMILES | IC50 [2] [nM] | IC50 [1, 5] [µM] | further results
COCCNC(C)(C)c1ccc(NC(=O)c2nc(C#N)c[nH]2)c(C2=CCC(C)(C)CC2)c1 [Example 20, 4-Cyano-1H-imidazole-2-carboxy-lic acid{2-(4,4-di-methyl-cyclo-hex-1-enyl)-4-[1-(2-meth-oxy-ethyl-amino)-1-methyl-ethyl]-phenyl}-amide] |  |  | IC50 [1, 4]: 0.0047 µM and 0.0048 µM
CN1CCN(C(C)(C)c2ccc(NC(=O)c3nc(C#N)c[nH]3)c(C3=CCC(C)(C)CC3)c2)CC1 [Example 23, 4-Cyano-1H-imidazole-2-carboxy-lic acid{2-(4,4-di-methyl-cyclohex-1-enyl)-4-[1-meth-yl-1-(4-methyl-piperazin-1-yl)-ethyl]-phe-nyl}-amide] |  |  | IC50 [1, 4]: 0.0033 µM
N#Cc1c[nH]c(C(=O)Nc2ccc(CCS(=O)(=O)N3CCOCC3)cc2C2=CCCCC2)n1 [Example 26, 4-Cyano-1H-imidazole-2-carboxylic acid {2-cyclohex-1-enyl-4-[2-(morpholine-4-sulfonyl)-ethyl]-phenyl}-amide] |  |  | IC50 [1, 4]: 0.0059 µM
Cc1nc(C(=O)Nc2ccc(CCN3CCOCC3)cc2C2=CCCCC2)[nH]c1C#N [Example 33, 5-Cyano-4-methyl-1H-imidazole-2-carboxylic acid [2-cyclohex-1-enyl-4-(2-morpholin-4-yl-ethyl)-phenyl]-amide hydrochloride] | > 60 |  | 
C[S+]([O-])c1ncc(C(=O)Nc2ccc(CCN3CCOCC3)cc2C2=CCCCC2)[nH]1 (centres unmarked) [Example 35, 2-Methanesulfinyl-3H-imidazole-4-carboxylic acid [2-cyclohex-1-enyl-4-(2-morpholin-4-yl-ethyl)-phenyl]-amide trifluoroacetic acid salt] | > 500 |  | 
CS(=O)(=O)c1ncc(C(=O)Nc2ccc(CCN3CCOCC3)cc2C2=CCCCC2)[nH]1 [Example 36, 2-Methanesulfonyl-3H-imidazole-4-carboxylic acid [2-cyclohex-1-enyl-4-(2-morpholin-4-yl-ethyl)-phenyl]-amide hydrochloride] | > 500 |  | 
O=C(Nc1ccc(CCN2CCOCC2)cc1C1=CCCCC1)c1nc(Cl)c(Cl)[nH]1 [Example 38, 4,5-Dichloro-1H-imidazole-2-carboxylic acid [2-cyclohex-1-enyl-4-(2-morpholin-4-yl-ethyl)-phenyl]-amide trifluoroacetic acid salt] | > 60 |  | 
O=C(Nc1ccc(CCN2CCOCC2)cc1C1=CCCCC1)c1nc2ccccc2[nH]1 [Example 39, 1H-Benzoimidazole-2-carboxylic acid [2-cyclohex-1-enyl-4-(2-morpholin-4-yl-ethyl)-phenyl]-amide trifluoroacetic acid salt] | > 60 |  | 
O=C(Nc1ccc(CCN2CCOCC2)cc1C1=CCCCC1)c1ncc(Cl)[nH]1 [Example 41, 5-Chloro-1H-imidazole-2-carboxylic acid [2-cyclohex-1-enyl-4-(2-morpholin-4-yl-ethyl)-phenyl]-amide hydrochloride] |  | 0.321 | 
N#Cc1cnc(C(=O)Nc2ccc(CN3CCOCC3)cc2C2=CCCCC2)[nH]1 [Example 44, 5-Cyano-1H-imidazole-2-carboxylic acid (2-cyclohex-1-enyl-4-morpholin-4-ylmethyl-phenyl)-amide hydrochloride] |  | 0.0164 | IC50 ([1]; read-out: mCSF driven proliferation BMDM (Mouse) - IC-50, BrDU incorporation, CSF-1 stimulated, 30 hrs culture, hydrochloride): 0.0146 µM
CC1(C)CC=C(c2cc(CC(=O)NCCCO)ccc2NC(=O)c2ncc(C#N)[nH]2)CC1 [Example 54, 5-Cyano-1H-imidazole-2-carboxylic acid {2-(4,4-dimethyl-cyclohex-1-enyl)-4-[(3-hydroxy-propylcarbamoyl)-methyl]-phenyl}-amide] |  | > 0.1 | 
CCN(C)CCCc1ccc(NC(=O)c2ccc(C#N)o2)c(N2CCC(C)CC2)c1 [Example 55, 5-Cyano-furan-2-carboxylic acid [4-[3-(ethyl-methyl-amino)-propyl]-2-(4-methyl-piperidin-1-yl)-phenyl]-amide] |  |  | IC50 [3]: 50 nM
CC1(C)CC=C(c2cc(C(C)(C)N3CCN(CC(=O)O)CC3)ccc2NC(=O)c2nc(C#N)c[nH]2)CC1 [Example 64, (4-{1-[4-[(4-Cyano-1H-imidazole-2-carbonyl)-amino]-3-(4,4-dimethyl-cyclohex-1-enyl)-phenyl]-1-methyl-ethyl}-piperazin-1-yl)-acetic acid, sodium salt] |  | 0.2 | 
CC1(C)CC=C(c2cc(C(C)(C)NCCO)ccc2NC(=O)c2nc(C#N)c[nH]2)CC1 [Example 65, 4-Cyano-1H-imidazole-2-carboxylic acid {2-(4,4-dimethyl-cyclohex-1-enyl)-4-[1-(2-hydroxy-ethylamino)-1-methyl-ethyl]-phenyl}-amide hydrochloride] |  | 0.0081 | 
CC1(C)CC=C(c2cc(C(C)(C)CN3C[C@@H]4OC(C)(C)O[C@@H]4C3)ccc2NC(=O)c2nc(C#N)c[nH]2)CC1 [Example 140, 4-Cyano-1H-imidazole-2-carboxylic acid {2-(4,4-dimethyl-cyclohex-1-enyl)-4-[2-(2,2-dimethyl-tetrahydro-[1,3]dioxolo[4,5-c]pyrrol-5-yl)-1,1-dimethyl-ethyl]-phenyl}-amide] | > 100 | 0.031 | 

Reference: US8674100B2, “Inhibitors of C-FMS kinase” (Janssen Pharmaceutica, N.V., priority 2006, dated 2014)
